“And” between values parts separate entries of the source, which are not always exact repeats. Equal values may be shown once.
Legend:
[1] = system: metastatic uveal melanoma (MUM); experiment: Tumour response (RECIST v1.1) and progression-free survival; type: in vivo, human
Experimental: Tumour response was assessed locally by computed tomography (CT) and/or magnetic resonance imaging (MRI) of the chest, abdomen and pelvis, according to Response Evaluation Criteria in Solid Tumours (RECIST) v1.1 at baseline, on C3D1 and every two cycles thereafter until cycle 11. After 11 cycles of treatment, response was evaluated every three cycles until the end of treatment. Fresh metastatic tumour biopsies were collected at baseline (prior to first dose) and on treatment at C1D15 to evaluate the modulation of PKC substrate proteins in tumours following exposure to LXS196 and to perform exploratory transcriptome and targeted DNA sequencing. Whole blood samples (peripheral blood mononuclear cells; PBMCs) were collected pre-dose on C1D1 and D15, and at various time points post-dose on C1D1, D2, D3, D15 and D16 to evaluate the modulation of PKC substrate proteins in a surrogate tissue. Owing to the exploratory nature of this phase I study, formal statistical tests were not planned to be performed. Data are presented using descriptive statistics and visualisations. Continuous variables are described with the mean and range. Categorical variables are described using counts and percentages. PFS is described using the Kaplan–Meier (KM) method.

RasGRP3, DUSP6 = experiment: RNAseq gene expression in tumour biopsies; type: in vivo, human
Experimental: Detailed DNA and RNA extraction methods and analysis are described in the supplementary appendix.
RNA libraries were prepared for RNAseq as previously described. Briefly, the total RNA was depleted of ribosomal RNA (rRNA), fragmented, converted to cDNA, and then the next generation sequencing (NGS) library was constructed using the TruSeq RNA v2 Library Preparation Kit (Illumina) with end repair, A-tailing, indexed adaptor ligation and PCR amplification steps. Sequence reads were aligned with STAR [12] to the hg19 human reference genome, and read counts of coding regions were summarised by HTSeq using a reference transcriptome of human Refseq transcripts.

92.1 human UM xenograft = system: 92.1 human UM xenograft; design: method as in PMID 27507190; settings: doses below MTD; cited from earlier work
dog = system: dog; design: method as in ref 20 = [20]; 20. IDEAYA Biosciences. IDE196 (LXS196, Darovasertib) investigator’s brochure. IDEAYA Biosciences; 2022.; settings: cited from earlier work

## CC1(N)CCN(c2cccnc2NC(=O)c2nc(-c3ncccc3C(F)(F)F)cnc2N)CC1 [LXS196]
[1]; 300 mg BID (RDE) n=18
  BOR: complete response (CR): 0 n (%)
  BOR: partial response (PR): 2 (11.1%) n (%) and 2 (11.1) n (%)
  BOR: progressive disease (PD): 3 (16.7) n (%)
  BOR: unknown: 1 (5.6) n (%)
  Kaplan–Meier PFS rate (95% CI) at 4 months: 44.4 (21.6–65.1) %
  Kaplan–Meier PFS rate (95% CI) at 6 months: 27.8 (10.1–48.9) %
  Kaplan–Meier PFS rate (95% CI) at 12 months: 22.2 (6.9–42.9) %
  Number of PFS events: 18 (100) n (%)
  PFS 25th percentile (95% CI): 2.1 (0.8–3.6) months
  PFS 50th percentile, median PFS (95% CI): 3.7 (2.1–5.4) months
  PFS 75th percentile (95% CI): 7.2 (3.7–25.8) months
  PFS events: deaths: 1 (5.6) n (%)
  PFS events: progression: 17 (94.4) n (%)
[1]; All BID n=30
  BOR: complete response (CR): 1 n (%) and 1 (3.3) n (%)
  BOR: partial response (PR): 3 n (%) and 3 (10.0) n (%)
  BOR: progressive disease (PD): 6 (20.0) n (%)
  BOR: unknown: 2 (6.7) n (%)
  Kaplan–Meier PFS rate (95% CI) at 4 months: 50.0 (31.3–66.1) %
  Kaplan–Meier PFS rate (95% CI) at 6 months: 33.3 (17.5–50.0) %
  Kaplan–Meier PFS rate (95% CI) at 12 months: 26.7 (12.6–43.0) %
  Number of PFS events: 30 (100) n (%)
  Overall response rate (ORR: CR + PR): 4 (13.3%) n (%) [95% CI]
  PFS 25th percentile (95% CI): 1.9 (1.6–3.6) months
  PFS 50th percentile, median PFS (95% CI): 4.1 (3.5–7.2) months
  PFS 75th percentile (95% CI): 12.9 (5.4–25.8) months
  PFS events: deaths: 2 (6.7) n (%)
  PFS events: progression: 28 (93.3) n (%)
[1]; All QD n=38
  BOR: complete response (CR): 0 n (%)
  BOR: partial response (PR): 2 n (%) and 2 (5.3) n (%)
  BOR: progressive disease (PD): 9 (23.7) n (%)
  BOR: unknown: 0 n (%)
  Kaplan–Meier PFS rate (95% CI) at 4 months: 36.8 (22.0–51.8) %
  Kaplan–Meier PFS rate (95% CI) at 6 months: 26.3 (13.7–40.8) %
  Kaplan–Meier PFS rate (95% CI) at 12 months: 0.0 (NE–NE) %
  Number of PFS events: 38 (100.0) n (%)
  PFS 25th percentile (95% CI): 3.4 (1.7–3.5) months
  PFS 50th percentile, median PFS (95% CI): 3.5 (3.5–5.4) months
  PFS 75th percentile (95% CI): 6.0 (3.6–7.3) months
  PFS events: deaths: 0 (0.0) n (%)
  PFS events: progression: 38 (100.0) n (%)
[1]; All patients N=68
  BOR: complete response (CR): 1 (1.5) n (%)
  BOR: partial response (PR): 5 n (%) and 5 (7.4) n (%)
  BOR: progressive disease (PD): 15 (22.1) n (%)
  BOR: unknown: 2 (2.9) n (%)
  Kaplan–Meier PFS rate (95% CI) at 4 months: 42.6 (30.8–54.0) %
  Kaplan–Meier PFS rate (95% CI) at 6 months: 29.4%
  Kaplan–Meier PFS rate (95% CI) at 12 months: 11.8 (5.5–20.6) %
  Number of PFS events: 68 (100) n (%)
  Overall response rate (ORR: CR + PR): 8.8 n (%) [95% CI]
  PFS 25th percentile (95% CI): 2.0 (1.7–3.5) months
  PFS 50th percentile, median PFS (95% CI): 3.6 (3.5–5.4) months
  PFS 75th percentile (95% CI): 7.2 (5.4–9.4) months
  PFS events: deaths: 2 n (%) and 2 (2.9) n (%)
  PFS events: progression: 66 n (%) and 66 (97.1) n (%)
[1]; RECIST v1.1, all doses
  Stable disease (SD) in evaluable patients: 45/66
[1]; n=45, range 2.07–30.23
  Median duration of SD: 5.32 months
[1]; patients with RECIST response n=6, range 2.99–41.95
  Median duration of response: 10.15 months and 10 months
RasGRP3, DUSP6
  MAPK pathway activity as measured by DUSP6 expression: trend towards suppression in the PR group
RasGRP3, DUSP6; C1D15, QD and BID
  RasGRP3 expression on treatment: decreased in some patients
92.1 human UM xenograft
  Tumour effect as single agent: tumour regression
dog; 4-week recovery phase
  Reversibility of findings: partial to complete reversibility
dog; 4-week toxicology study, dog
  Potential target organ: GI tract
dog; single-dose and 4-week repeated dose, dog
  Potential toxicity: decrease in systolic blood pressure

Source: paper PMC10006169, “A phase I trial of LXS196, a protein kinase C (PKC) inhibitor, for metastatic uveal melanoma” (British Journal of Cancer, 2023)
